ChEMBL document CHEMBL1201862, “PubChem BioAssay data set” (2004)
Activity calls are given as the source filed them.

What was measured:
Aminopeptidase N = target: T1, Aminopeptidase N (Plasmodium falciparum FcB1/Columbia, UniProt O96935); test: malaria alanyl aminopeptidase activity blockers – biochemical, fluorogenic H-Leu-NHMec substrate, 1536-well (AID 1445); set-up: species or system Plasmodium falciparum 3D7, 3D7
T1 sequence (O96935 whole entry): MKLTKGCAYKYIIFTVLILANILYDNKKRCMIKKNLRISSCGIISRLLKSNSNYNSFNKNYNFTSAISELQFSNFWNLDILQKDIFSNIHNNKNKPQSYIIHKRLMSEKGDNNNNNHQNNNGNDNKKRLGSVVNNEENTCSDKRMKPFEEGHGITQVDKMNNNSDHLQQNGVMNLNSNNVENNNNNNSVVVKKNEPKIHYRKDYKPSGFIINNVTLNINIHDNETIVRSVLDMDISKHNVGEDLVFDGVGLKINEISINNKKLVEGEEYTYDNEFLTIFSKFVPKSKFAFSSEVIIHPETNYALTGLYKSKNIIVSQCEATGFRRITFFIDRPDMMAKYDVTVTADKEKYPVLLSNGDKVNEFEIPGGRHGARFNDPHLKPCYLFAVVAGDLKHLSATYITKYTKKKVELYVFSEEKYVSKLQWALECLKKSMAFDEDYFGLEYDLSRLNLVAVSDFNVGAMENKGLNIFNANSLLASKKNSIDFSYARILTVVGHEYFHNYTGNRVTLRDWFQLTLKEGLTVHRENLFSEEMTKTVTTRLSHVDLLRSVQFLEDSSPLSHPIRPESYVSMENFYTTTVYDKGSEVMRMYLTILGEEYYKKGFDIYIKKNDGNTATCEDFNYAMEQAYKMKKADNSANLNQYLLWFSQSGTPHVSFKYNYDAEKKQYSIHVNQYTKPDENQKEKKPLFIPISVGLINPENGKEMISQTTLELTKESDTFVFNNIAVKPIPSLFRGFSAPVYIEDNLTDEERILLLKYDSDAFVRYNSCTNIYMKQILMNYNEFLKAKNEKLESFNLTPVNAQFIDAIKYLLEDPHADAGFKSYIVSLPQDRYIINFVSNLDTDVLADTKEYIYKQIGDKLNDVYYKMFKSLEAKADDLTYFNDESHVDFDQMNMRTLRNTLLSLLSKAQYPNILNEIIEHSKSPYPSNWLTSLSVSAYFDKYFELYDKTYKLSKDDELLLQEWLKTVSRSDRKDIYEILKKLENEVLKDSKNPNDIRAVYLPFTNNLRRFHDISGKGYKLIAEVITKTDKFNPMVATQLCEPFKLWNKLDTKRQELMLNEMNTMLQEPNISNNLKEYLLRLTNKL

H4 = test: Luminescence Cell-Based Dose Response HTS to Identify Activators of 5'UTR Stem-Loop Driven Prion Protein mRNA Translation in H4 Neuroglioblastoma Cells. [Related pubchem assays: 1829 (Project Summary), 1814 (Primary HTS)]; format: functional; details: Homo sapiens
[1] = Luminescence Cell-Based Dose Response HTS to Identify Activators of Luciferase Translation or Activity in H4 […] Cells. [Related pubchem assays: 1829 (Project Summary), 1814 (Primary HTS)]; format: functional
[2] = Luminescence Cell-Based Dose Confirmation HTS to Identify Activators of 5'UTR Stem-Loop Driven Alpha-Synuclein mRNA Translation in H4 Neuroglioblastoma Cells. [Related pubchem assays: 1829 (Project Summary), 1814 (Primary HTS)]; format: functional
[3] = target: G-protein coupled receptor 55 (Homo sapiens, UniProt Q9Y2T6); test: selective activators of receptor GPR55 – imaging, U2OS cells, beta-arrestin-GFP redistribution, primary screen (AID 1961); format: functional
[4] = A549 cell cytotoxicity, dose response, cytotoxicity control, plate reader, cherry-pick, antagonist series (AID 743412); format: functional, cell-based
[5] = blockers of bursicon-stimulated LGR2 cAMP reporter – cell-based, HEK293, CRE-luciferase reporter, cherry pick, set 2, dose response (AID 743343); format: functional;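 further: transfected cells were stimulated with diluted bursicon conditioned medium after compound addition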
[6] = toxicity toward HepG2 liver cells – cell-based, plate reader, cherry-pick, antagonist series, cytotoxicity control, dose response (AID 743416); format: functional
[7] = blockade of melanocortin 4 receptor signaling – cell-based, plate reader, cherry pick, counter-screen for LGR2 antagonist project, dose response (AID 743444); format: functional;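 further: transfected HEK 293 cells stimulated with alpha-MSH peptide; potency of inhibitors of the alpha-MSH evoked signal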
[8] = viability loss in HEK293 cells – cell-based, plate reader, cherry-picked samples, cytotoxicity control, dose response (AID 743446); format: functional
[9] = target: DNA dC->dU-editing enzyme APOBEC-3G (Homo sapiens, UniProt Q9HC16); test: Dose Response confirmation of small molecule APOBEC3G DNA Deaminase Inhibitors via a fluorescence-based single-stranded DNA deaminase assay. [Related pubchem assays (depositor defined):AID493012, AID493028]; format: functional
[10] = target: DNA dC->dU-editing enzyme APOBEC-3A (Homo sapiens, UniProt P31941); test: A3A deaminase inhibition for selectivity – biochemical, dose response (AID 504722); format: functional
[11] = target: T2, DNA repair and recombination protein RAD54-like (Homo sapiens, UniProt Q92698); test: RAD54 Holliday junction migration blockers – biochemical, fluorescence, cherry-picked samples, dose series, confirmation (AID 651657); format: functional
T2 sequence (Q92698 whole entry): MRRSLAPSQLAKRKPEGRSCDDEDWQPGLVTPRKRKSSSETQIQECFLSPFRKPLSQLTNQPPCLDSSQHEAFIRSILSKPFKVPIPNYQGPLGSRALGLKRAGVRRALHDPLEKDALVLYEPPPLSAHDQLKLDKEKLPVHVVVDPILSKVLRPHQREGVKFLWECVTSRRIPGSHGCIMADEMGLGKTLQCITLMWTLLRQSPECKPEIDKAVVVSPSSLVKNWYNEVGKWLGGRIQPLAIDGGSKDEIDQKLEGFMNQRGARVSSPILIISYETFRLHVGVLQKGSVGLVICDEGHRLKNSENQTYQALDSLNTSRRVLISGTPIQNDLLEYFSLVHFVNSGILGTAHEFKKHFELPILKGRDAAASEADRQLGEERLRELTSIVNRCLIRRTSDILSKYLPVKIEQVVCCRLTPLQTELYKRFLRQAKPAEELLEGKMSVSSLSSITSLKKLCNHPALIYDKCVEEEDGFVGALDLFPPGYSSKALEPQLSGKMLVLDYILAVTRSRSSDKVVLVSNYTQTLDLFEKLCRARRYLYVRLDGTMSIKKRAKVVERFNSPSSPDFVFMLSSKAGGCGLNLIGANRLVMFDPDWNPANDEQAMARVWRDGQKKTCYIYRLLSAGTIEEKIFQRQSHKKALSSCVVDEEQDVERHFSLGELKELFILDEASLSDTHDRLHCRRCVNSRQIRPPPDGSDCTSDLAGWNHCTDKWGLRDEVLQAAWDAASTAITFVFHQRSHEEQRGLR

[12] = target: T3, Zinc finger protein mex-5 (Caenorhabditis elegans, UniProt Q9XUB2); test: potency of MEX-5 RNA-binding blockers – biochemical, C. elegans, fluorescence polarization, dose response (AID 1960)
T3 sequence (Q9XUB2 whole entry): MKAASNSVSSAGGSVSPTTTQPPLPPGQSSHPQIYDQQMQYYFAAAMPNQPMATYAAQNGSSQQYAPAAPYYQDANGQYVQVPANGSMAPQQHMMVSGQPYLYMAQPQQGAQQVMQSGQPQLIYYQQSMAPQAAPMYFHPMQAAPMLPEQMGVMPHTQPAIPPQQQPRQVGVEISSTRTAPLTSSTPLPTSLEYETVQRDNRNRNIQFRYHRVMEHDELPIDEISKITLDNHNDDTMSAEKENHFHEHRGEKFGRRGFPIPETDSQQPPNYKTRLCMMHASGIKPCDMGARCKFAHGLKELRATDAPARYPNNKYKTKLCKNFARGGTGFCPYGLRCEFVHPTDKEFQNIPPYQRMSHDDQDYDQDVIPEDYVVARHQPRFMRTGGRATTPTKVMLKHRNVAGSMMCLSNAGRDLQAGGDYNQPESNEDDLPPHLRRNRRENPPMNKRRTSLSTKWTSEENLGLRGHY

[13] = target: T4, RNA-binding protein pos-1 (Caenorhabditis elegans, UniProt G5EF15); test: disruptors of C. elegans POS-1 RNA interaction – biochemical, fluorescence polarization, dose response (AID 1964);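 further: purified POS-1 fused to maltose binding protein made in E. coli; potency of compounds blocking POS-1 binding to fluorescent RNA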
T4 sequence (G5EF15 whole entry): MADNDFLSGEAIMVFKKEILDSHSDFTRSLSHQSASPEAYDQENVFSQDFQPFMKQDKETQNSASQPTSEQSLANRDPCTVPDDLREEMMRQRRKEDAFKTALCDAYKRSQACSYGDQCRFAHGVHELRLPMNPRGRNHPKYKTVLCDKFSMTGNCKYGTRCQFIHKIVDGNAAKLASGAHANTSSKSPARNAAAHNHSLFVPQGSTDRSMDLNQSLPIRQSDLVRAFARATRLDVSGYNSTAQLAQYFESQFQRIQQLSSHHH

[14] = P. falciparum Dd2 growth inhibitors, dose response, SYBR Green, cherry-picked samples (AID 1159567); format: functional, cell-based
[15] = toxicity to human hepatoma HepG2 cells – cell-based, cherry-picked samples, cytotoxicity control, dose response (AID 1159577); format: functional
[16] = target: T5, Rac GTPase-activating protein 1 (Homo sapiens, UniProt Q9H0H5); test: blockers of MgcRacGAP-driven Rac1 GTP hydrolysis – biochemical, ADP Hunter fluorescence, primary and confirmatory, confirmation (AID 624330); format: functional
T5 sequence (Q9H0H5 whole entry): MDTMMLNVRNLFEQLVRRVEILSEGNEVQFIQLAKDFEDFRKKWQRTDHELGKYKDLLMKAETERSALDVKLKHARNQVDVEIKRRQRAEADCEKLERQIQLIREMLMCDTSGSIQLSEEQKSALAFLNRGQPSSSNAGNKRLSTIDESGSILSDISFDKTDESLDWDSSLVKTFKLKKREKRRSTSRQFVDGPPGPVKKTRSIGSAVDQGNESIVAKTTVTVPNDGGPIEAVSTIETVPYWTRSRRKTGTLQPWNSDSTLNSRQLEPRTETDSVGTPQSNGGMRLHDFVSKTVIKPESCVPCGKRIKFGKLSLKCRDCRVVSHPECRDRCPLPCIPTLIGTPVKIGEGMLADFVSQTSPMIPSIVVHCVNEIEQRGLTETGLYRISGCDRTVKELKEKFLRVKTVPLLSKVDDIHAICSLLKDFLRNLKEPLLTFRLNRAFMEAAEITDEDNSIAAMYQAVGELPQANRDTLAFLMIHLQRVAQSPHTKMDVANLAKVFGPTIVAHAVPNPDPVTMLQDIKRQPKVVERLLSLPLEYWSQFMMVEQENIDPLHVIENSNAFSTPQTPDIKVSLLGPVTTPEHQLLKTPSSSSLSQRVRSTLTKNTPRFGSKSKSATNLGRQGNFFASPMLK

[17] = viability loss in HeLa cells – cytotoxicity control for MgcRacGAP inhibitor project, dose response (AID 624300); format: functional
[18] = HIV-1 Vif–A3G interaction blockers – biochemical, TR-FRET, GST-Vif 1-94, biotin-A3G peptide, dose response retest, primary screen (AID 1117319); format: functional;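 further: TR-FRET signal of purified GST-Vif binding a biotinylated A3G peptide; inhibitors lower the FRET signal by blocking Vif and A3G binding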

Chain of DNA dC->dU-editing enzyme APOBEC-3G (Q9HC16 whole entry): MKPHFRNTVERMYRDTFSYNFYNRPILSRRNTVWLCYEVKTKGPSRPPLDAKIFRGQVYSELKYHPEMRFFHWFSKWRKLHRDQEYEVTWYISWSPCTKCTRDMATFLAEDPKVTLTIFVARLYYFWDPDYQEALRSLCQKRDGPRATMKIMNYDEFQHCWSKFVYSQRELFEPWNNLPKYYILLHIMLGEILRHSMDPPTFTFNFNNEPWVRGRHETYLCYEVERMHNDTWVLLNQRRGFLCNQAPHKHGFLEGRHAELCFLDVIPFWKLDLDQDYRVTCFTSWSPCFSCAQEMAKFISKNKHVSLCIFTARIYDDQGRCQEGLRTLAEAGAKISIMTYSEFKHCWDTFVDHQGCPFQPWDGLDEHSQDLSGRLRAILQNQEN
Chain of DNA dC->dU-editing enzyme APOBEC-3A (P31941 whole entry): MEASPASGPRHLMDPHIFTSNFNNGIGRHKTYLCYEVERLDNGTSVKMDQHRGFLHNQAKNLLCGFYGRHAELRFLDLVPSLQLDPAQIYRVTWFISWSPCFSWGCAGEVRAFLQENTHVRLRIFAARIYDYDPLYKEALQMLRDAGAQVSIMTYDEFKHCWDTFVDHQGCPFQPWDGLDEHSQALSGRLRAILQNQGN
Chain of G-protein coupled receptor 55 (Q9Y2T6 whole entry): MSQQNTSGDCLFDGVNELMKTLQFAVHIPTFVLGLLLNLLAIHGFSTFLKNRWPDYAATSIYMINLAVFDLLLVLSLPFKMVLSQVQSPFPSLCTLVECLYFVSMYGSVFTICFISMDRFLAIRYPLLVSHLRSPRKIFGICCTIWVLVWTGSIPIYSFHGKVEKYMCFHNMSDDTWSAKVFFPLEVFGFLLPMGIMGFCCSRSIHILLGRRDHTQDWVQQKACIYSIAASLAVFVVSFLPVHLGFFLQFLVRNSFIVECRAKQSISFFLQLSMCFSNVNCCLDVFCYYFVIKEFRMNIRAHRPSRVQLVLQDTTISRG

## CCCCc1cc(=O)oc2c(CN(C)C)c(O)ccc12
Aminopeptidase N
  IC50: 30.2 µM (active)

## Cc1cc(C)n2nc(C(=O)NNC(=O)c3ccc(Cl)cc3)nc2n1
H4
  EC50: > 120 µM (not active)
[1]
  EC50: 12.7 µM (active)
[2]
  EC50: > 120 µM (not active)
Aminopeptidase N
  IC50: 15.9 µM (active)

## Cc1cc(C)c2sc(N(CCN(C)C)C(=O)c3cc(Cl)sc3Cl)nc2c1
[3]
  EC50: 26.2 µM (inactive)

## COc1ccc2oc(C(=O)N3CCc4ccccc43)c(C)c2c1
[4]
  AC50: 20 µM (active)
[5]
  AC50: 7.5 µM (active)
[6]
  AC50: 21.5 µM (active)
[7]
  AC50: 6.24 µM (active)
[8]
  AC50: 33.9 µM (active)

## Cc1[nH]c(=S)c(C#N)c2c1CCCC2
[9]
  IC50: 5.25 µM (active)
[10]
  IC50: > 100 µM (inactive)

## Cc1cc(-c2nnc(S)n2-c2ccc(C)c(C)c2)no1
[9]
  IC50: 8.07 µM (active)
[10]
  IC50: > 100 µM (inactive)

## CN(C)CCCN(C(=O)c1cc(Cl)sc1Cl)c1nc2cc3c(cc2s1)OCO3
[3]
  EC50: > 32 µM (inactive)

## Cn1c(C(=O)NCCCN2CCOCC2)cc2c(=O)n(C)c3ccccc3c21
[11]
  AC50: 26.1 µM (active)
[12]
  EC50: > 300 µM (not active)
[13]
  EC50: > 300 µM (not active)

## O=C(CSc1nc2c(c(=O)n1-c1ccc(Cl)cc1)SCC2)NCC1CCCO1 (stereo not given)
Aminopeptidase N
  IC50: 58.3 µM (active)

## N#C[C@@H]1[C@H](c2ccccc2-c2cccc(F)c2)[C@H](CO)N1C(=O)NC1CCCC1
[14]
  AC50: 6.42 µM (active)
[15]
  AC50: > 39 µM (inactive)

## COCCCn1c(=N)c(C(=O)NCC2CCCO2)cc2c(=O)n3ccccc3nc21 (stereo not given)
Aminopeptidase N
  IC50: 60.2 µM (active)

## Clc1ccc(OCCOCCNCc2ccccc2)cc1Cl
[16]
  IC50: 149 µM (active)
[17]
  CC50: 91.9 µM (active)

## CC(C)C(NC(N)=O)C(=O)NC1CCCCC1 (stereo not given)
[18]
  IC50: > 100 µM (active)

## OC1CCCN(Cc2c3ccccc3cc3ccccc23)C1 (stereo not given)
[11]
  AC50: 4.09 µM (active)

## C=CCn1c(=O)c2ccccc2n2c(S)nnc12
[9]
  IC50: 2.61 µM (active)
[10]
  IC50: > 100 µM (inactive)

## COc1cc2nc3c(O)n(CCN4CCCCC4)cnc-3c2cc1OC
[11]
  AC50: 36.3 µM (active)

## COc1ccc(CCN2C(=O)c3cccc4c(C(=O)N5CCCCC5)ccc(c34)C2=O)cc1OC
[4]
  AC50: > 52 µM (inactive)
[5]
  AC50: 21.6 µM (active)
[6]
  AC50: > 52 µM (inactive)
[7]
  AC50: 18 µM (active)
[8]
  AC50: 16.7 µM (active)

## C[C@@H]1CN([C@@H](C)CO)S(=O)(=O)c2ccc(/C=C/c3ccccc3)cc2O[C@H]1CN(C)Cc1cncnc1
[14]
  AC50: 5.17 µM (active)
[15]
  AC50: > 39 µM (inactive)

## COCCN(Cc1cc2ccccc2nc1O)C(=O)c1ccccc1OC
[18]
  IC50: > 100 µM (active)

## O=S(=O)(c1ccccc1F)N1C[C@@H]2N[C@H](C1)[C@H]2c1ccc(/C=C/c2ccccc2)cc1
[14]
  AC50: 3.4 µM (active)
[15]
  AC50: 16.1 µM (active)
